A melting point compilation (Tetko et al.; mined from patent text by program, amines drawn as free bases though some values may be those of a salt)

Structure (SMILES)	melting point [°C]
CCOC(=O)[C@H](Cc1ccc(-c2c(C)n(C)c(=O)n(C)c2=O)cc1)NC(=O)c1c(F)cccc1F	218 to 219
CS(=O)(=O)c1ccc(-c2cnn(-c3ccc(F)c(Cl)c3)c(=O)c2-c2ccc(Cl)cc2)cc1	205
CN1CCCC(NC(=O)c2ccc3[nH]ncc3c2)C1 (stereo not drawn)	228 to 229
COC(=O)c1cccc(CC2COc3ccc(OCc4nc5cc(F)ccc5s4)cc3C2O)c1 (stereo not drawn)	171 to 173
O=C(O)CCc1cccc(OCc2ccccc2Cl)c1OCc1ccccc1Cl	131 to 132
N#Cc1c(N2CCN(Cc3ccccc3)CC2)nn2c(-c3ccncc3)ccnc12	193 to 194
CN(Cc1ccc2[nH]cc(CCN3C(=O)c4ccccc4C3=O)c2c1)S(=O)(=O)C(F)(F)F	131 to 133
CCc1nc2c(cnn2CC)c(NC2CCOCC2)c1CNC(=O)c1cccc(C(=O)NCc2ccc(OC)c(-c3cccc(CN4CCCNCC4)c3)c2)c1	143 to 147
CC(C)CC(=O)Nc1ccc2oc3c(c2c1)CCCC3	154 to 157
N#Cc1cccc(CN2C(=O)c3ccccc3C2=O)c1	147 to 149
C=C=COc1ccccc1S(=O)(=O)NC(=O)Nc1nc(C)nc(OC)n1	150 to 151
O=C(O)CP(=O)(O)CCNC(=O)c1ccccc1	54 to 57
COCCOc1ccc(/C=C(\C)C(=O)NS(=O)(=O)c2cccc(Cl)c2)c(Oc2ncc(C(F)(F)F)cc2Cl)c1	89 to 92
Nc1cc(NC(=O)CCCCl)c(Cl)cc1Cl	125 to 128
COc1ccc(C(O)c2nn(C)c3c2CCc2c(C(N)=O)sc(Oc4ccc5c(c4)OCO5)c2-3)cc1 (stereo not drawn)	187 to 188
CC(=O)Nc1ccc(S(=O)(=O)NCC2CCN(C[C@H]3COc4ccc(Cl)cc4O3)CC2)cc1	173 to 176
NC(=O)c1cccc(C(=O)Nc2ccc(-n3nc(C(F)(F)F)cc3C(F)(F)F)cc2)c1	244 to 245
COc1ccc(N)c(CS(=O)(=O)c2ccccc2)c1	110 to 111
FC(F)(F)c1cc2cc3cc4cc(Sc5ccccc5)c(Sc5ccccc5)cc4cc3cc2cc1C(F)(F)F	> 260
COP(=O)(Cc1cc(C)c(C)cc1CP(=O)(OC)OC)OC	66 to 69
CCOC(=O)c1cn2c3c(cc(C)cc3c1=O)OCC2C (stereo not drawn)	195 to 197
CC(=O)C(=Cc1ccc(C#N)cc1)C(C)=O	86 to 88
Cc1sc2c(Br)c3ccccc3c(C3=CC(Br)([N+](=O)[O-])C(OC(Cc4ccccc4)C(=O)O)C=C3)c2c1C (stereo not drawn)	243 to 245
CCCn1nnn(-c2cc(O)c(F)cc2F)c1=O	65 to 67
CC(C)n1nc(-c2c(-c3ccccc3)nn3ccc(OCC(=O)NC4CCC(O)CC4)cc23)ccc1=O (stereo not drawn)	146 to 148

Structure (SMILES)	melting point [°C]
Clc1cn2cc(Cl)c(Cl)c(Cl)c2n1	232 to 233
Cn1c(N)c2ncn(C3OC(CO)C(O)C3O)c2nc1=O (stereo not drawn)	262 to 263
CS(=O)(=O)N(CCO)C1CCC(Nc2nccc(-n3nnc4ccccc43)n2)CC1 (stereo not drawn)	230 to 231
CC(C)(C)N(NC(=O)c1ccccc1)C(=O)C1CCCCC1	202 to 204
CCC(=O)Nc1nc(CC(=O)N(C)c2ccc(Cl)cc2)cs1	153 to 155
CN(C)S(=O)(=O)c1cccc2c1Sc1ccc(OCc3ccccc3)cc1N2CCCCl	124 to 126
CCCCOc1cc(C2(C)CNC(=O)O2)ccc1OC (stereo not drawn)	108 to 109
CCC(CC)Nc1c(C)c(C)nc2c1c(C)nn2-c1c(C)cc(C)cc1C	201 to 205
COc1ccc2c(c1Cl)Sc1ccccc1N2C	136
COC(=O)c1ccc(-c2noc(C(F)(F)F)n2)s1	126 to 127
C#Cc1cc(C(C)(C)C)cc(C(C)(C)C)c1OCC	46 to 47
O=C(N[C@@H]1CCc2cccc(N3CCNCC3)c2C1)c1ccc(N2CCOCC2)cc1	202 to 203
CSc1ccc2nc(-c3cccc(C)c3)c(-c3ccnc(NC4CCCCC4)c3)n2n1	150 to 151
CC(C)N1C(=O)C2Cc3c(nc(C(=O)c4ccccc4)n3Cc3ccccc3)CN2C1=O (stereo not drawn)	215 to 217
O=C(O)c1cn(CCF)c2cc(F)c(F)cc2c1=O	249 to 251
CC1(C)Oc2ccc(C#N)cc2[C@@H](NC2=C(CO)C(=O)CC2)[C@@H]1O (relative stereo)	218 to 220
O=C(CSCc1ccc(Cl)c(Cl)c1)NO	75 to 76
Cc1nc2c(C(=O)O)c(C(=O)O)ccc2n1Cc1ccccc1	224 to 226
CS(=O)(=O)c1ccccc1C(N)=O	149
O=C(CC1CCCC1)NC[C@H]1CN(c2ccc3c(c2)CCCc2cnn(C(=O)CC4CCCC4)c2-3)C(=O)O1	165 to 167
CC(=O)OCc1c(Br)cccc1N1CCc2c(sc3c2CCCC3)C1=O	74 to 75
NS(=O)(=O)c1ccc(-c2cc(F)c(F)cc2-c2ccc3c(c2)OCO3)cc1	142 to 143
CCOC(=O)C=C1CSC(=N)N1N	135 to 137
CC(C)(C)c1cc(C(=O)c2ccc(Cl)cc2)cc(CN2CCOCC2)c1O	165 to 166
O=C1CCC(Cc2ccc3ccccc3c2)=C1O	120 to 122

Structure (SMILES)	melting point [°C]
CS(=O)(=O)c1ccc(C(=O)Nc2ccc(Cl)c(-c3ccc(OCCCCCCC(=O)NO)cn3)c2)c(Cl)c1	140 to 145
COCc1c(C=NO)ncc2[nH]c3cccc(Cc4ccccc4Cl)c3c12	209 to 212
Cc1ccc(OCCO)cn1	49 to 51
CCC(=O)O[C@@H]1OCC[C@@H]1NC(=O)[C@@H](NS(=O)(=O)c1cccc2ccccc12)[C@@H](C)CC	157 to 159
CCOC(=O)COc1cc2c(c(O)c1Cl)C(=O)CC1(CCCCC1)O2	103 to 104
COC(=O)Cc1ccc(O)c(C23CC4CC(CC(C4)C2)C3)c1	185 to 186
Cc1conc1-c1nnc2c3ccccc3c(OCc3ccccn3)nn12	164
O=C(CCCl)N(c1ccccc1)c1ccccc1	93 to 94
O=P(Oc1ccc2ccccc2c1)(Oc1ccc2ccccc2c1)Oc1ccc2ccccc2c1	110 to 111
COC(=O)CC1=CN=C(SC)NC1(C)O (stereo not drawn)	200
COc1ccc(CC(C)=O)cc1SC	74 to 75
CCOC(=O)C(=O)Nc1c([N+](=O)[O-])sc2c(Cl)cc(Cl)cc12	177 to 180
O=C(NC(=O)c1c(Cl)cccc1Cl)Nc1cnc(-c2ccc(Cl)cc2)cn1	245 to 249
CNC(=O)C1CCc2ccccc21 (stereo not drawn)	107 to 109
COC(=O)C1=C(C)Nc2ccccc2SC1c1cccc([N+](=O)[O-])c1 (stereo not drawn)	140 to 142
C=C(c1ccccc1)S(=O)(=O)c1ccc(C(C)(C)C)cc1	99
O=C(c1ccn2c1CSC2c1cccnc1)c1cn(C(=O)NCCc2c[nH]cn2)c2cc(-c3ccc(F)cc3)ccc12 (stereo not drawn)	156 to 158
O=C(O)[C@H](Cc1ccccc1)Nc1c(N2CCN(c3ccccc3)CC2)c(=O)c1=O	165 to 167
Cc1ccc(Cl)c2nc3cccc(C(=O)NCCCN(C)CCCNC(=O)c4cccc5nc6c(Cl)ccc(C)c6nc45)c3nc12	200 to 202
CSc1c(C#N)nn(-c2c(Br)cc(C(F)(F)F)cc2Br)c1N	211 to 214
Cc1ccc(O)c(NC(=O)c2cc(C)sc2Br)c1	173 to 175
CC(C)(C)c1cc(C#N)c(O)c(Br)c1Cl	105 to 107
CCCCC(=O)N(Cc1ccc(-c2ccccc2-c2nnn[nH]2)cc1)C(C(=O)O)c1ccccc1 (stereo not drawn)	145 to 148
ClCc1cnc(SCc2ccccc2)s1	57 to 61
O=C(NC[C@@H](C(=O)NO)N1CCCCC1)c1ccc(OCc2ccncc2)cc1	190

Structure (SMILES)	melting point [°C]
CC(C)Sc1nc(OS(C)(=O)=O)cs1	83 to 85
COc1ccc2cccnc2c1O	113 to 115
CN(O)CCCc1ccc2c(c1)C(=O)c1ccccc1CO2	113 to 114
CC(Cc1ccc(Cl)c(OC(F)(F)C(F)F)c1)NC(=O)C1C2=C(C=CC1(O)c1ccc(F)cc1)CCCC=C2 (stereo not drawn)	174 to 175
Cc1cc(-c2nnc3c4ccccc4c(OCc4ncc[nH]4)nn23)no1	188 to 189
CC(C)n1cc(C2CCC(=O)CC2)c2cc(C#N)ccc21	106 to 107
Cc1cc(Oc2ccc(S(C)(=O)=O)nc2)cc2cc(C3=NCC(CC(=O)O)S3)[nH]c12 (stereo not drawn)	248 to 249
COc1cccc(-n2ccc(=O)c(-c3ccnn3-c3ccccc3)n2)c1	110 to 111
Cc1c(O)ccc2c1OCC(c1ccc3c(c1)OCO3)C2 (stereo not drawn)	130 to 131
CCCCc1nc2c(N)nc3cccnc3c2s1	136 to 138
CCCC1(CCC(C)=O)Cc2cc(CCC(=O)O)c(Cl)c(Cl)c2C1=O (stereo not drawn)	131 to 133
C[C@@H](NC(=O)c1csc(-c2ccc(C(F)(F)F)cc2)n1)[C@](O)(Cn1cncn1)c1ccc(F)cc1F	167 to 168
N[C@@H](Cc1ccccc1)C(=O)N1CCN(C(c2ccc(F)cc2)c2ccc(F)cc2)CC1	44 to 51
Cc1oc(-c2ccccc2)nc1CCCc1ccc(CCCC2OC(=O)NC2=O)cc1 (stereo not drawn)	119 to 120
Cc1coc2c1C(=O)CC(c1ccccc1)C2 (stereo not drawn)	104 to 106
Cc1nc(N)n(C)c(=O)c1CCN1CCC(Cc2nc3ccccc3n2Cc2ccc(F)cc2)CC1	147
CCOC(=O)C1CCN(C(=O)COc2cc(-c3ccccc3)nc3ccccc23)CC1	120
CC(=O)C=Cc1cn(CC(=O)N(C)CCc2ccccc2)c2ccc(OCc3ccccc3)cc12	150 to 152
Cc1nn(-c2ccccn2)c2ncc(C(=O)O)c(O)c12	248 to 251
CC1C(=O)CCC2(C)C1CCC1C3CCC(=Cc4ccccc4Cl)C3(C)CCC12 (stereo not drawn)	205 to 208
COc1ccnc(OC)c1CON=C(C#N)c1cc(C)cc(C)n1	196 to 201
N#CC1=C(c2ccccc2)Oc2ccccc2O1	85 to 86
Nc1c(SC(F)(F)F)c(C(=O)O)nn1-c1c(Cl)cc(C(F)(F)F)cc1Cl	199
